Key:
Experiment in all cases: relative viability (nuclei count vs DMSO), 5 days (fraction); higher = more cells survive
Kobe2602 + Crizotinib = compound: C1=CC(=CC=C1NC(=S)NNC2=C(C=C(C=C2[N+](=O)[O-])C(F)(F)F)[N+](=O)[O-])F [Kobe2602] + C[C@@H](Oc1cc(-c2cnn(C3CCNCC3)c2)cnc1N)c1c(Cl)ccc(F)c1Cl [Crizotinib] (partner 1 µM)
Summary of the method: (§1)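 Dosing by pin tool came one day after lung cancer cell lines were seeded in 1536-well plates, using either one drug or a fixed anchor-drug dose plus five library-drug doses (not always all listed) in √10 steps. After 5 days, nuclei were counted on 4× images. Relative viability is treated-well nuclei count divided by vehicle-well nuclei count, and values are medians of duplicate plates.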

Kobe2602 + Olaparib = compound: C1=CC(=CC=C1NC(=S)NNC2=C(C=C(C=C2[N+](=O)[O-])C(F)(F)F)[N+](=O)[O-])F [Kobe2602] + O=C(c1cc(Cc2n[nH]c(=O)c3ccccc23)ccc1F)N1CCN(C(=O)C2CC2)CC1 [Olaparib] (partner 8 µM)
Summary of the method: as §1

Kobe2602 + Alpelisib = compound: C1=CC(=CC=C1NC(=S)NNC2=C(C=C(C=C2[N+](=O)[O-])C(F)(F)F)[N+](=O)[O-])F [Kobe2602] + Cc1nc(NC(=O)N2CCC[C@H]2C(N)=O)sc1-c1ccnc(C(C)(C)C(F)(F)F)c1 [Alpelisib] (partner 2 µM)
Summary of the method: as §1

Kobe2602 + Linsitinib = compound: C1=CC(=CC=C1NC(=S)NNC2=C(C=C(C=C2[N+](=O)[O-])C(F)(F)F)[N+](=O)[O-])F [Kobe2602] + C[C@]1(O)C[C@@H](c2nc(-c3ccc4ccc(-c5ccccc5)nc4c3)c3c(N)nccn32)C1 [Linsitinib] (partner 1 µM)
Summary of the method: as §1

Row | Cell Line | relative viability (Kobe2602 + Crizotinib; first compound 0.2 µM) | relative viability (Kobe2602 + Crizotinib; first compound 0.6325 µM) | relative viability (Kobe2602 + Crizotinib; first compound 2 µM) | relative viability (Kobe2602 + Crizotinib; first compound 6.325 µM) | relative viability (Kobe2602 + Crizotinib; first compound 20 µM) | relative viability (Kobe2602 + Olaparib; first compound 0.2 µM) | relative viability (Kobe2602 + Olaparib; first compound 0.6325 µM) | relative viability (Kobe2602 + Olaparib; first compound 2 µM) | relative viability (Kobe2602 + Olaparib; first compound 6.325 µM) | relative viability (Kobe2602 + Olaparib; first compound 20 µM) | relative viability (Kobe2602 + Alpelisib; first compound 0.2 µM) | relative viability (Kobe2602 + Alpelisib; first compound 0.6325 µM) | relative viability (Kobe2602 + Alpelisib; first compound 2 µM) | relative viability (Kobe2602 + Alpelisib; first compound 6.325 µM) | relative viability (Kobe2602 + Alpelisib; first compound 20 µM) | relative viability (Kobe2602 + Linsitinib; first compound 0.2 µM) | relative viability (Kobe2602 + Linsitinib; first compound 0.6325 µM) | relative viability (Kobe2602 + Linsitinib; first compound 2 µM) | relative viability (Kobe2602 + Linsitinib; first compound 6.325 µM) | relative viability (Kobe2602 + Linsitinib; first compound 20 µM)
1 | HCC-15 | 0.747 | 0.803 | 0.727 | 0.769 | 0.752 | 0.691 | 0.727 | 0.609 | 0.742 | 0.837 | 0.797 | 0.938 | 0.875 | 0.849 | 0.885 | 0.881 | 0.919 | 0.872 | 0.832 | 0.899
2 | HCC-44 | 0.771 | 0.697 | 0.767 | 0.783 | 0.749 | 0.965 | 0.983 | 0.955 | 0.951 | 0.898 | 0.852 | 0.793 | 0.767 | 0.725 | 0.737 | 0.739 | 0.668 | 0.632 | 0.624 | 0.766
3 | HCC-78 | 0.382 | 0.302 |  | 0.333 | 0.363 | 0.852 | 0.809 | 0.904 | 0.591 | 0.907 | 0.359 | 0.359 |  | 0.391 | 0.445 | 0.61 | 0.495 |  | 0.459 | 0.611
4 | HCC-366 | 0.434 | 0.597 | 0.494 | 0.569 | 0.655 | 0.368 | 0.345 | 0.32 | 0.352 | 0.365 | 0.364 | 0.493 | 0.309 | 0.429 | 0.496 | 0.711 | 0.743 | 0.629 | 0.664 | 0.647
5 | HCC-827 | 0.925 | 0.921 | 0.903 | 0.91 | 0.859 | 0.681 | 0.678 | 0.683 | 0.664 | 0.725 | 0.951 | 0.875 | 0.951 | 0.936 | 1.07 | 0.902 | 0.936 | 0.925 | 0.955 | 0.922
6 | HOP-62 | 0.803 | 0.9 | 0.961 | 0.873 | 0.962 | 0.512 | 0.523 | 0.476 | 0.316 | 0.472 | 1.05 | 0.846 | 0.934 | 0.809 | 1.25 | 0.837 | 1.11 | 0.974 | 1.01 | 1.12
7 | IA-LM | 0.64 | 0.671 | 0.718 | 0.789 | 0.703 | 0.851 | 0.718 | 0.773 | 0.894 | 0.862 |  | 0.778 | 0.602 | 0.683 | 0.751 | 0.506 | 0.462 | 0.632 | 0.476 | 0.573
8 | LC-2-ad | 0.433 | 0.465 | 0.464 | 0.547 | 0.494 | 0.693 | 0.683 | 0.708 | 0.736 | 0.682 | 0.846 | 0.866 | 0.916 | 0.883 | 1.01 | 0.849 | 0.833 | 0.774 | 0.867 | 0.865

Source: the supplement of paper PMC10307832
